Target: Recombinant KAT6A/MOZ (488-778) protein (Homo sapiens (Human), UniProt Q92794)
Test: KAT6A AlphaLISA Inhibition Screening Assay
Type: biochemical
Conditions: for inhibition at 1 µM: read-out: Average Kat6A % inhibition @ 1 μM; for inhibition at 1 µM / Average Kat6A % inhibition @ 1 μM: 1 μM test compound; for inhibition at 10 µM: read-out: Average Kat6A % inhibition @ 10 μM; for inhibition at 10 µM / Average Kat6A % inhibition @ 10 μM: 10 μM test compound
Description: The Kat6a inhibitory activity of test compounds was determined using an Alpha Screen-based detection method. The assay reactions were conducted in a volume of 10 μL in Alpha Plate, White 384 well plate (cat #6008280, Perkin Elmer). The enzymatic reactions were performed in assay buffer pH 8.0 (50 mM Tris-HCl, 0.1 mM EDTA, 0.01% Tween-20, 1 mM Dithiothreitol, 0.1% BSA (fatty acid free) and 330 nM TSA (Trichostatin A)). 10 μL reaction volume consisting of 25 nM of Recombinant KAT6A/MOZ (488-778) protein (Active motif, Catalog #81223), 400 nM Acetyl coenzyme A (Catalog #A2056, Sigma), 200 nM of Histone H3 peptide [(amino acids 1-21), biotin-labeled (BPS Biosciences, Catalog #52011)]. Test compounds were screened at different doses starting with 10 μM, 3 fold dilution and 10 point Dose response curve. Enzyme and compounds solution were pre-incubated in assay plate for 60 or 10 min at room temperature then substrate and Acetyl coenzyme A solution were added to the plate. After addition, the plate was sealed with adhesive seals and incubated for 120 minutes at room temperature.
After 120 minutes of incubation, […] of AlphaLISA anti-acetyl-Lysine acceptor beads (Perkin Elmer, Catalog #AL143C) were added to the plate and it was incubated for 60 minutes at room temperature. Then […] of Alpha Streptavidin donor beads (Perkin Elmer, Catalog #6760002S) were added to the plate which was further incubated for 60 minutes at room temperature. After incubation, the alpha signal was recorded by using Perkin Elmer Envision multi-mode reader. Percent inhibition of enzyme activity by test compounds were determined relative to vehicle control.

Sequence of Recombinant KAT6A/MOZ (488-778) protein (Q92794 488-778): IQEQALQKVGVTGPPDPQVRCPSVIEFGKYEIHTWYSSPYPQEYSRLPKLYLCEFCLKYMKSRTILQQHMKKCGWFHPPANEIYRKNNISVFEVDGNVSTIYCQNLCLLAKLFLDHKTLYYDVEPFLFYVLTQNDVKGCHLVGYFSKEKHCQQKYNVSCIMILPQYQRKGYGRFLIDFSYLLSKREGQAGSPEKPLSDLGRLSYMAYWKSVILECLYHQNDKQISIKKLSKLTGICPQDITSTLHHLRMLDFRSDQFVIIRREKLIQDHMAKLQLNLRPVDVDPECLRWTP

In the case of `C=C(F)C(=O)NCc1cnn(Cc2cc(OC)c3c(NS(=O)(=O)c4cc(CC)ccc4OCc4nn[nH]n4)noc3c2)c1` [Syn. Ex. 72, N-((1-((3-((2-((2H-tetrazol-5-yl)methoxy)-5-ethylphenyl)sulfonamido)-4-methoxybenzo[d]isoxazol-6-yl)methyl)-1H-pyrazol-4-yl)methyl)-2-fluoroacrylamide], the inhibition at 1 µM is reported as 100% and the inhibition at 10 µM is reported as 100%.

With `C#CC(=O)Nc1ccc(Oc2cc(OC)c3c(NS(=O)(=O)c4cc(CC)ccc4OC)noc3c2)nc1` [Syn. Ex. 108, N-(6-((3-((5-ethyl-2-methoxyphenyl)sulfonamido)-4-methoxybenzo[d]isoxazol-6-yl)oxy)pyridin-3-yl)propiolamide] the inhibition at 1 µM was 99% and the inhibition at 10 µM was 100%.

`C=C(F)C(=O)N1Cc2cnn(Cc3cc(OC)c4c(NS(=O)(=O)c5cc(CC)ccc5OC)noc4c3)c2C1` [Syn. Ex. 13, 5-ethyl-N-(6-((5-(2-fluoroacryloyl)-5,6-dihydropyrrolo[3,4-c]pyrazol-1(4H)-yl)methyl)-4-methoxybenzo[d]isoxazol-3-yl)-2-methoxybenzenesulfonamide] showed an inhibition at 1 µM of 99% and an inhibition at 10 µM of 100%.

With `CCc1ccc(OCC(=O)O)c(S(=O)(=O)Nc2noc3cc(Cn4cc(CNC(=O)OC)cn4)cc(OC)c23)c1` [Syn. Ex. 62, 2-(4-ethyl-2-(N-(4-methoxy-6-((4-(((methoxycarbonyl)amino)methyl)-1H-pyrazol-1-yl)methyl)benzo[d]isoxazol-3-yl)sulfamoyl)phenoxy)acetic acid] the inhibition at 1 µM was 100% and the inhibition at 10 µM was 100%.

`C#CC(=O)NCc1cnn(Cc2cc(OC)c3c(NS(=O)(=O)c4cc(Cl)c(C)cc4OC)noc3c2)c1` [Syn. Ex. 21, N-((1-((3-((5-chloro-2-methoxy-4-methylphenyl)sulfonamido)-4-methoxybenzo[d]isoxazol-6-yl)methyl)-1H-pyrazol-4-yl)methyl)propiolamide] gave an inhibition at 1 µM of 100% and an inhibition at 10 µM of 99%.

For `C=C(F)C(=O)NCc1cnn(Cc2cc(OC)c3c(NS(=O)(=O)c4cc5c(cc4OC)CCC5)noc3c2)c1` [Syn. Ex. 30, 2-fluoro-N-((1-((4-methoxy-3-((6-methoxy-2,3-dihydro-1H-indene)-5-sulfonamido)benzo[d]isoxazol-6-yl)methyl)-1H-pyrazol-4-yl)methyl)acrylamide], the “Average Kat6A % inhibition @ 1 μM” value was 100% and the “Average Kat6A % inhibition @ 10 μM” value was 100%.

Work on `CCc1ccc(OCc2ncon2)c(S(=O)(=O)Nc2noc3cc(Cn4cc(CNC(=O)OC)cn4)cc(OC)c23)c1` [Syn. Ex. 74, methyl ((1-((3-((2-((1,2,4-oxadiazol-3-yl)methoxy)-5-ethylphenyl)sulfonamido)-4-methoxybenzo[d]isoxazol-6-yl)methyl)-1H-pyrazol-4-yl)methyl)carbamate] yielded an inhibition at 1 µM of 100% and an inhibition at 10 µM of 100%.

`C=C(F)C(=O)NCc1cnc(Oc2cc(OC)c3c(NS(=O)(=O)c4cc(CC)ccc4OC)noc3c2)o1` [Syn. Ex. 99, N-((2-((3-((5-ethyl-2-methoxyphenyl)sulfonamido)-4-methoxybenzo[d]isoxazol-6-yl)oxy)oxazol-5-yl)methyl)-2-fluoroacrylamide] gave an inhibition at 1 µM of 91% and an inhibition at 10 µM of 100%.

For `COC(=O)NCc1cnn(Cc2cc3c4c(noc4c2)NS(=O)(=O)c2c(OC)cccc2OCCCCCO3)c1` [Syn. Ex. 138, methyl ((1-((14-methoxy-15,15-dioxido-6,7,8,9-tetrahydro-5H,16H-4,10,18-trioxa-15-thia-16,17-diazabenzo[11,12]cyclotetradeca[1,2,3-cd]inden-2-yl)methyl)-1H-pyrazol-4-yl)methyl)carbamate], the “Average Kat6A % inhibition @ 1 μM” value was 111% and the “Average Kat6A % inhibition @ 10 μM” value was 114%.

Compound `C=C(F)C(=O)NCc1cnn(Cc2cc(OC)c3c(NS(=O)(=O)c4cc(C)ccc4OC)noc3c2)c1` [Syn. Ex. 89, 2-fluoro-N-((1-((4-methoxy-3-((2-methoxy-5-methylphenyl)sulfonamido)benzo[d]isoxazol-6-yl)methyl)-1H-pyrazol-4-yl)methyl)acrylamide] has an inhibition at 1 µM of 100% and an inhibition at 10 µM of 100%.

In the case of “N-[[2-[[4-methoxy-3-[(6-methoxyindan-5-yl)sulfonylamino]-1,2-benzoxazol-6-yl]oxy]thiazol-5-yl]methyl]carbamate [Syn. Ex. 148]”, the “Average Kat6A % inhibition @ 1 μM” value is reported as 115% and the “Average Kat6A % inhibition @ 10 μM” value is reported as 117%.

`C=C(F)C(=O)N(C)Cc1cnn(Cc2cc(OC)c3c(NS(=O)(=O)c4cc(CC)ccc4OC)noc3c2)c1` [Syn. Ex. 39, N-((1-((3-((5-ethyl-2-methoxyphenyl)sulfonamido)-4-methoxybenzo[d]isoxazol-6-yl)methyl)-1H-pyrazol-4-yl)methyl)-2-fluoro-N-methylacrylamide] was tested, and the inhibition at 1 µM was 92% and the inhibition at 10 µM was 100%.

`C=C(F)C(=O)NCc1cnn(Cc2cc3onc(NS(=O)(=O)c4ccccc4OC)c3cc2OC)c1` [Syn. Ex. 146, 2-fluoro-N-((1-((5-methoxy-3-((2-methoxyphenyl)sulfonamido)benzo[d]isoxazol-6-yl)methyl)-1H-pyrazol-4-yl)methyl) acrylamide] was tested, and the “Average Kat6A % inhibition @ 1 μM” value was 99% and the “Average Kat6A % inhibition @ 10 μM” value was 101%.

With `COC(=O)NCc1cnn(Cc2cc(OC)c3c(NS(=O)(=O)c4c(OC)ccnc4OC)noc3c2)c1` [Syn. Ex. 86, methyl ((1-((3-((2,4-dimethoxypyridine)-3-sulfonamido)-4-methoxybenzo[d]isoxazol-6-yl)methyl)-1H-pyrazol-4-yl)methyl)carbamate] the “Average Kat6A % inhibition @ 1 μM” value was 86% and the “Average Kat6A % inhibition @ 10 μM” value was 100%.

Compound `CCc1ccc(OC)c(S(=O)(=O)Nc2noc3cc(Oc4ccc(N)cn4)cc(OC)c23)c1` [Syn. Ex. 109, N-(6-((5-aminopyridin-2-yl)oxy)-4-methoxybenzo[d]isoxazol-3-yl)-5-ethyl-2-methoxybenzenesulfonamide] has an inhibition at 1 µM of 95% and an inhibition at 10 µM of 98%.

In the case of `CCc1ccc(OC)c(S(=O)(=O)Nc2noc3cc(Oc4cccc(CNC(=O)OC)n4)cc(OC)c23)c1` [Syn. Ex. 106, methyl ((6-((3-((5-ethyl-2-methoxyphenyl)sulfonamido)-4-methoxybenzo[d]isoxazol-6-yl)oxy)pyridin-2-yl)methyl)carbamate], the inhibition at 1 µM is reported as 10% and the inhibition at 10 µM is reported as 44%.

`CCc1ccc(OC)c(S(=O)(=O)Nc2noc3cc(Cn4cc(CNC(=O)OC)cn4)cc(OC(F)F)c23)c1` [Syn. Ex. 63, methyl ((1-((4-(difluoromethoxy)-3-((5-ethyl-2-methoxyphenyl)sulfonamido)benzo[d]isoxazol-6-yl)methyl)-1H-pyrazol 4yl)methyl)carbamate] gave an inhibition at 1 µM of 95% and an inhibition at 10 µM of 96%.

For `C=C(F)C(=O)NCc1cnn(Cc2cc(OC)c3c(NS(=O)(=O)c4cc(CC)ccc4OCc4ncon4)noc3c2)c1` [Syn. Ex. 73, N-((1-((3-((2-((1,2,4-oxadiazol-3-yl)methoxy)-5-ethylphenyl)sulfonamido)-4-methoxybenzo[d]isoxazol-6-yl)methyl)-1H-pyrazol-4-yl)methyl)-2-fluoroacrylamide], the inhibition at 1 µM was 100% and the inhibition at 10 µM was 100%.

Work on `C#CC(=O)NCc1cnc(Oc2cc(OC)c3c(NS(=O)(=O)c4cc(CC)ccc4OC)noc3c2)s1` [Syn. Ex. 103, N-((2-((3-((5-ethyl-2-methoxyphenyl)sulfonamido)-4-methoxybenzo[d]isoxazol-6-yl)oxy)thiazol-5-yl)methyl)propiolamide] yielded an inhibition at 1 µM of 97% and an inhibition at 10 µM of 99%.

Source: patent US20250122182A1 (Isosterix, Inc., priority 2023, published 2025)
